For one assay, the target named is human Gal-3 (hGal-3) (Homo sapiens (Human), UniProt P17931). The experiment in a line: competitive binding assay: biotinylated hGal-3 binding to microplate-adsorbed asialofetuin (ASF). The procedure, abridged: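 Serial DMSO dilutions of each compound; binding incubation of 3 hours at 4 °C with cold-buffer washes; detection using 80 ng/mL streptavidin-peroxidase for 1 hour, then ABTS. Multiple determinations were averaged to give the IC50.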

The next assay deals with human Gal-1 (hGal-1) (Homo sapiens (Human), UniProt P09382). As to the kind of experiment: competitive binding assay: biotinylated hGal-1 binding to microplate-adsorbed asialofetuin (ASF). The conditions noted are these: Table 15; read-out: IC50 (Galectin-1 inhibition). The procedure, abridged:
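Spectrophotometric competition readout: after compound and biotinylated hGal-1 (300-1000 ng/mL) sit 3 h at 4° C on adsorbed asialofetuin, streptavidin-peroxidase (1 h, 4° C) and ABTS reveal residual binding. Reported IC50 values are means of repeat runs.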

Setting [1] is: Gal-3 inhibition, binding of biotinylated hGal-3 to ASF, mean values, read-out: IC50.
Setting [2] is: Table 5, read-out: IC50 (Gal-3 inhibition).

Where two headings read alike, the source gives them in different places.

For 18 molecules, IC50 results are on record in US12404295B2, “(Hetero)aryl-methyl-thio-beta-D-galactopyranoside derivatives” (Idorsia Pharmaceuticals Ltd, priority 2019, dated 2025).

Sequence of human Gal-3 (hGal-3) (P17931 whole entry): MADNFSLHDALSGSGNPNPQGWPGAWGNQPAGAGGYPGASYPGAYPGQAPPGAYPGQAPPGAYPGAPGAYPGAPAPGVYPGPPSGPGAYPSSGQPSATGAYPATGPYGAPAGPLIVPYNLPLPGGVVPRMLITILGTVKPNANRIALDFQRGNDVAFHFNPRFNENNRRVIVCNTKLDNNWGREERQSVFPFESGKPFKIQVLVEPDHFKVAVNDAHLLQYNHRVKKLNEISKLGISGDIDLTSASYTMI
Sequence of human Gal-1 (hGal-1) (P09382 whole entry): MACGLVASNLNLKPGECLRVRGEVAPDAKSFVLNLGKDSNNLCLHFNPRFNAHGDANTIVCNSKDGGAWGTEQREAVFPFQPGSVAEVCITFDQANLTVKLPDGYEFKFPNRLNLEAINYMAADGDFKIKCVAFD

For the molecule `Cc1c(F)cc(-c2cn([C@H]3[C@@H](O)[C@@H](CO)O[C@@H](S[C@@H](c4ccccc4C(F)(F)F)C(C)(C)O)[C@@H]3O)nn2)cc1F` [Example 3.31.112S., (2S,3R,4S,5R,6R)-4-(4-(3,5-Difluoro-4-methylphenyl)-1H-1,2,3-triazol-1-yl)-2-(((S)-2-hydroxy-2-methyl-1-(2-(trifluoromethyl)phenyl)propyl)thio)-6-(hydroxymethyl)tetrahydro-2H-pyran-3,5-diol], the values for the IC50 on human Gal-3 (hGal-3) (setting [1]) and at human Gal-1 (hGal-1) were 4850 nM and 54200 nM, respectively.

On to `OC[C@H]1O[C@@H](SC(c2ccccc2C(F)(F)F)C(O)c2ccccc2)[C@H](O)[C@@H](n2cc(-c3cc(F)c(F)c(F)c3)nn2)[C@H]1O` (stereo partly drawn) [Example 2.61.112., (2S,3R,4S,5R,6R)-2-((2-Hydroxy-2-phenyl-1-(2-(trifluoromethyl)phenyl)ethyl)thio)-6-(hydroxymethyl)-4-(4-(3,4,5-trifluorophenyl)-1H-1,2,3-triazol-1-yl)tetrahydro-2H-pyran-3,5-diol], for which the half-maximal inhibitory concentration (IC50) was 1100 nM at human Gal-3 (hGal-3) (setting [1]) and 7880 nM on human Gal-1 (hGal-1).

For the molecule `Cc1cccnc1[C@H](S[C@@H]1O[C@H](CO)[C@H](O)[C@H](n2cc(-c3cc(F)c(F)c(F)c3)nn2)[C@H]1O)C1(O)CCS(=O)(=O)CC1` [Example 2.66.126S., 4-((S)-(((2S,3R,4S,5R,6R)-3,5-Dihydroxy-6-(hydroxymethyl)-4-(4-(3,4,5-trifluorophenyl)-1H-1,2,3-triazol-1-yl)tetrahydro-2H-pyran-2-yl)thio)(3-methylpyridin-2-yl)methyl)-4-hydroxytetrahydro-2H-thiopyran 1,1-dioxide], the IC50 at human Gal-3 (hGal-3) (setting [1]) is 2000 nM; at human Gal-1 (hGal-1), 16500 nM.

Regarding `Cc1cccnc1C(S[C@@H]1O[C@H](CO)[C@H](O)[C@H](n2cc(-c3cc(F)c(F)c(F)c3)nn2)[C@H]1O)C1(O)CCC(F)(F)CC1` (stereo partly drawn) [Example 2.44.126., (2S,3R,4S,5R,6R)-2-(((4,4-Difluoro-1-hydroxycyclohexyl)(3-methylpyridin-2-yl)methyl)thio)-6-(hydroxymethyl)-4-(4-(3,4,5-trifluorophenyl)-1H-1,2,3-triazol-1-yl)tetrahydro-2H-pyran-3,5-diol], the half-maximal inhibitory concentration (IC50) at human Gal-3 (hGal-3) (setting [1]) and at human Gal-1 (hGal-1) was 60 nM in each case.

As to `CC(C)c1ccccc1[C@H](S[C@@H]1O[C@H](CO)[C@H](O)[C@H](n2cc(-c3cc(F)c(F)c(F)c3)nn2)[C@H]1O)C1(O)CCC(F)(F)CC1` [Example 2.44.105S., (2S,3R,4S,5R,6R)-2-(((S)-(4,4-Difluoro-1-hydroxycyclohexyl)(2-isopropylphenyl)methyl)thio)-6-(hydroxymethyl)-4-(4-(3,4,5-trifluorophenyl)-1H-1,2,3-triazol-1-yl)tetrahydro-2H-pyran-3,5-diol], the IC50 at human Gal-3 (hGal-3) (setting [2]) is 950 nM; on human Gal-1 (hGal-1), 520 nM.

In the case of `CCc1c(C(S[C@@H]2O[C@H](CO)[C@H](O)[C@H](n3cc(-c4cc(F)c(F)c(F)c4)nn3)[C@H]2O)C2(O)CCC(F)(F)CC2)noc1C1CC1` (stereo partly drawn) [Example 2.44.130., (2S,3R,4S,5R,6R)-2-(((5-Cyclopropyl-4-ethylisoxazol-3-yl)(4,4-difluoro-1-hydroxycyclohexyl)methyl)thio)-6-(hydroxymethyl)-4-(4-(3,4,5-trifluorophenyl)-1H-1,2,3-triazol-1-yl)tetrahydro-2H-pyran-3,5-diol], the IC50 stood at 60 nM on human Gal-3 (hGal-3) (setting [1]) and 130 nM on human Gal-1 (hGal-1).

`Cc1c(F)cc(-c2cn([C@H]3[C@@H](O)[C@@H](CO)O[C@@H](SC(c4ccccc4C(F)(F)F)C(C)(C)O)[C@@H]3O)nn2)cc1F` (stereo partly drawn) [Example 3.31.112., (2S,3R,4S,5R,6R)-4-(4-(3,5-Difluoro-4-methylphenyl)-1H-1,2,3-triazol-1-yl)-2-((2-hydroxy-2-methyl-1-(2-(trifluoromethyl)phenyl)propyl)thio)-6-(hydroxymethyl)tetrahydro-2H-pyran-3,5-diol]: the figures for the IC50 on human Gal-3 (hGal-3) (setting [1]) and at human Gal-1 (hGal-1) were 210 nM and 4900 nM, respectively.

Regarding `CC(C)(O)C(S[C@@H]1O[C@H](CO)[C@H](O)[C@H](n2cc(-c3ccc4ccccc4c3)nn2)[C@H]1O)c1ccccc1C(F)(F)F` (stereo partly drawn) [Example 4.31.112, (2S,3R,4S,5R,6R)-2-((2-Hydroxy-2-methyl-1-(2-(trifluoromethyl)phenyl)propyl)thio)-6-(hydroxymethyl)-4-(4-(naphthalen-2-yl)-1H-1,2,3-triazol-1-yl)tetrahydro-2H-pyran-3,5-diol], the concentration for half-maximal inhibition (IC50) stood at 2240 nM on human Gal-3 (hGal-3) (setting [1]) and 2270 nM on human Gal-1 (hGal-1).

Regarding “(2S,3R,4S,5R,6R)-2-(((4-Hydroxy-2,2-dimethyltetrahydro-2H-pyran-4-yl)(2-(trifluoromethyl)phenyl)methyl)thio)-6-(hydroxymethyl)-4-(4-(3,4,5-trifluorophenyl)-1H-1,2,3-triazol-1-yl)tetrahydro-2H-pyran-3,5-diol [Example 2.43.102.]”, the results for the IC50 at human Gal-3 (hGal-3) (setting [2]) and at human Gal-1 (hGal-1) were 120 nM and 1900 nM, respectively.

As to `CCc1ccccc1C(S[C@@H]1O[C@H](CO)[C@H](O)[C@H](n2cc(-c3cc(F)c(F)c(F)c3)nn2)[C@H]1O)C(C)(C)O` (stereo partly drawn) [Example 2.31.103., (2S,3R,4S,5R,6R)-2-((1-(2-Ethylphenyl)-2-hydroxy-2-methylpropyl)thio)-6-(hydroxymethyl)-4-(4-(3,4,5-trifluorophenyl)-1H-1,2,3-triazol-1-yl)tetrahydro-2H-pyran-3,5-diol], the half-inhibitory concentration (IC50) at human Gal-3 (hGal-3) (setting [1]) turned out to be 300 nM; at human Gal-1 (hGal-1), 1230 nM.

For `CO[C@@H]1[C@@H](n2cc(-c3cc(F)c(F)c(F)c3)nn2)[C@@H](O)[C@@H](CO)O[C@H]1SC(c1nc(Cl)ccc1Cl)C1(O)CCC(F)(F)CC1` (stereo partly drawn) [Example 2.44.144.I., (2R,3R,4S,5R,6S)-6-(((3,6-Dichloropyridin-2-yl)(4,4-difluoro-1-hydroxycyclohexyl)methyl)thio)-2-(hydroxymethyl)-5-methoxy-4-(4-(3,4,5-trifluorophenyl)-1H-1,2,3-triazol-1-yl)tetrahydro-2H-pyran-3-ol], the half-inhibitory concentration (IC50) on human Gal-3 (hGal-3) (Table 11, read-out: IC50 (Gal-3 inhibition)) came to 250 nM; at human Gal-1 (hGal-1), 4160 nM.

Turning to `OC[C@H]1O[C@@H](SC(c2ncccc2C(F)(F)F)C2(O)CCOCC2)[C@H](O)[C@@H](n2cc(-c3cc(F)c(F)c(F)c3)nn2)[C@H]1O` (stereo partly drawn) [Example 2.41.125., (2R,3R,4S,5R,6S)-2-(Hydroxymethyl)-6-(((4-hydroxytetrahydro-2H-pyran-4-yl)(3-(trifluoromethyl)pyridin-2-yl)methyl)thio)-4-(4-(3,4,5-trifluorophenyl)-1H-1,2,3-triazol-1-yl)tetrahydro-2H-pyran-3,5-diol], the concentration for half-maximal inhibition (IC50) on human Gal-3 (hGal-3) (setting [2]) stood at 250 nM; at human Gal-1 (hGal-1), 5700 nM.

In the case of `COC(=O)N1CCC(O)([C@@H](S[C@@H]2O[C@H](CO)[C@H](O)[C@H](n3cc(-c4cc(F)c(F)c(F)c4)nn3)[C@H]2O)c2ccccc2C(F)(F)F)CC1` [Example 2.50.112S., Methyl 4-((S)-(((2S,3R,4S,5R,6R)-3,5-dihydroxy-6-(hydroxymethyl)-4-(4-(3,4,5-trifluorophenyl)-1H-1,2,3-triazol-1-yl)tetrahydro-2H-pyran-2-yl)thio)(2-(trifluoromethyl)phenyl)methyl)-4-hydroxypiperidine-1-carboxylate], the results for the IC50 on human Gal-3 (hGal-3) (setting [1]) and on human Gal-1 (hGal-1) were 7700 nM and 15800 nM, respectively.

As for “(2S,3R,4S,5R,6R)-2-(((S)-(3,3-Difluoro-1-hydroxycyclobutyl)(3-(trifluoromethyl)pyridin-2-yl)methyl)thio)-6-(hydroxymethyl)-4-(4-(3,4,5-trifluorophenyl)-1H-1,2,3-triazol-1-yl)tetrahydro-2H-pyran-3,5-diol [Example 2.35.125S.]”, the IC50 was 3000 nM on human Gal-3 (hGal-3) (setting [2]) and 21800 nM on human Gal-1 (hGal-1).

In the case of `OC[C@H]1O[C@@H](SC(c2ccccc2C(F)(F)F)C2(O)CCOCC2)[C@H](O)[C@@H](n2cc(-c3cc(F)c(F)c(F)c3)nn2)[C@H]1O` (stereo partly drawn) [Example 2.41.112., (2R,3R,4S,5R,6S)-2-(Hydroxymethyl)-6-(((4-hydroxytetrahydro-2H-pyran-4-yl)(2-(trifluoromethyl)phenyl)methyl)thio)-4-(4-(3,4,5-trifluorophenyl)-1H-1,2,3-triazol-1-yl)tetrahydro-2H-pyran-3,5-diol], the IC50 at human Gal-3 (hGal-3) (setting [2]) came to 110 nM; on human Gal-1 (hGal-1), 900 nM.

Take `Cc1ncccc1C(S[C@@H]1O[C@H](CO)[C@H](O)[C@H](n2cc(-c3cc(F)c(F)c(F)c3)nn2)[C@H]1O)C(C)(C)O` (stereo partly drawn) [Example 2.31.116., (2S,3R,4S,5R,6R)-2-((2-Hydroxy-2-methyl-1-(2-methylpyridin-3-yl)propyl)thio)-6-(hydroxymethyl)-4-(4-(3,4,5-trifluorophenyl)-1H-1,2,3-triazol-1-yl)tetrahydro-2H-pyran-3,5-diol]: the 50% inhibitory concentration (IC50) on human Gal-3 (hGal-3) (setting [1]) is 300 nM; at human Gal-1 (hGal-1) it was 3780 nM.

As for `CO[C@@H]1[C@@H](n2cc(-c3cc(F)c(F)c(F)c3)nn2)[C@@H](O)[C@@H](CO)O[C@H]1S[C@H](c1nocc1C)C1(O)CCC(F)(F)CC1` [Example 2.44.120R.I., (2R,3R,4S,5R,6S)-6-(((R)-(4,4-Difluoro-1-hydroxycyclohexyl)(4-methylisoxazol-3-yl)methyl)thio)-2-(hydroxymethyl)-5-methoxy-4-(4-(3,4,5-trifluorophenyl)-1H-1,2,3-triazol-1-yl)tetrahydro-2H-pyran-3-ol], the IC50 on human Gal-3 (hGal-3) (Table 10, 2-OMe-Gal inhibitors, read-out: IC50 (Gal-3 inhibition)) came to 210 nM; on human Gal-1 (hGal-1) it was 610 nM.

With `Cc1ccncc1C(S[C@@H]1O[C@H](CO)[C@H](O)[C@H](n2cc(-c3cc(F)c(F)c(F)c3)nn2)[C@H]1O)C(C)(C)O` (stereo partly drawn) [Example 2.31.117., (2S,3R,4S,5R,6R)-2-((2-Hydroxy-2-methyl-1-(4-methylpyridin-3-yl)propyl)thio)-6-(hydroxymethyl)-4-(4-(3,4,5-trifluorophenyl)-1H-1,2,3-triazol-1-yl)tetrahydro-2H-pyran-3,5-diol], the 50% inhibitory concentration (IC50) at human Gal-3 (hGal-3) (setting [1]) was 530 nM; at human Gal-1 (hGal-1), 4950 nM.

As a reminder, the IC50 is the midpoint of a concentration-inhibition curve.
